Patent US20260297042A1, “BIARYLAMIDE DERIVATIVES AND THEIR USE AS PKMYT1 INHIBITORS” (CANCER RESEARCH TECHNOLOGY LIMITED, priority 2023, published 2026)

What was measured:
KYSE-30 cells = experiment: Cancer cell line proliferation assay, ATP-based cell viability (Cell Titre Glow), KYSE-30 (normal CCNE1); conditions: Homo sapiens, KYSE-30 cells (normal CCNE1), concentration that achieves 50% cell growth proliferation inhibition, read-out: KYSE30 Gl50
Procedure, shortened: (§1)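 Luminescence read-out from an ATP-based viability reagent served as the proliferation measure. Values are GI50 estimates, i.e. concentrations producing 50% inhibition of cell growth.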

[1] = target: T1, Cellular PKMYT1 Biomarker CDK1 pT14 (Homo sapiens, UniProt Q99640); experiment: Inhibition of cellular PKMYT1 biomarker CDK1 pT14 in OVCAR 3 cells (immunoblot); format: cell-based; conditions: 20 hours incubation
T1 construct: read-out CDK1 phospho-T14 immunoblot
T1 sequence (Q99640 1-499): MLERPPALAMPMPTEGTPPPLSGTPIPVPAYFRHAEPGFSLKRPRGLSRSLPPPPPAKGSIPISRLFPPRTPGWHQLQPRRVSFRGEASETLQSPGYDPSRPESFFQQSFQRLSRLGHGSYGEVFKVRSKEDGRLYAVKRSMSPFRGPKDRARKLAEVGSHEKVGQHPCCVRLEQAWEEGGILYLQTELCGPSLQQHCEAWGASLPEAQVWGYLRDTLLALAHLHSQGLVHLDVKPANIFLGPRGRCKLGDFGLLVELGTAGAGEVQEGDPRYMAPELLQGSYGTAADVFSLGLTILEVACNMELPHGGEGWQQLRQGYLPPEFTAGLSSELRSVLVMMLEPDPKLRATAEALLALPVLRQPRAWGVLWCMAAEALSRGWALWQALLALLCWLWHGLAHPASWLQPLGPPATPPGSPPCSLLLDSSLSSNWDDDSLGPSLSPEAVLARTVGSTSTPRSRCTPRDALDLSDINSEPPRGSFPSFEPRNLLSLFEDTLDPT
Protocol: To determine compound PKMYT1 IC50 in a cellular assay, OVCAR 3 cells were incubated at 37° C. in 5% CO2 atmosphere. The cells were maintained in RPMI medium supplemented with 20% foetal bovine serum, 1X non essential amino acids, 1 mM sodium pyruvate, Glutamax and insulin. Cells were seeded into 12-well plates at low density (50,000-200,000 cells per well), grown to confluence (~350-400,000 cells per well) and then treated with a range of concentrations of PKMYT1 inhibitors. The cells were incubated 20 hours and then harvested into 1X Laemmli Sample Buffer (BIORAD) without 2-mercaptoethanol, heated to 95° C. for 5 min, centrifuged and sonicated using a microprobe for 15 sec, 21W to shear the DNA.
The samples were analysed by immunoblot on a Jess Automated Western Blot System (BioTechne). The samples were separated using the 12-230 kDa Separation Module (BioTechne,) and blotted using an anti-CDK1 phospho T14 antibody (Abcam, #ab58509) and an anti-vinculin antibody (Abcam, #126002). Specific binding was detected by fluorescence using the Anti-Rabbit Detection Module (BioTechne, #DM-001), quantified using Compass for Simple Western software, and IC50 values were calculated by regression analysis in GraphPad Prism.

OVCAR 3 cells = experiment: Cancer cell line proliferation assay, ATP-based cell viability (Cell Titre Glow), OVCAR 3 (CCNE1-amplified); conditions: KYSE30 (normal CCNE1) GI50 vs. OVCAR 3 (CCNE1-amplified) GI50
Procedure, shortened: as §1

WEE1 = target: T2, WEE1 (Homo sapiens, UniProt P30291); experiment: Selectivity versus WEE1 assay (ADP-Glo enzymatic assay); format: biochemical; conditions: for IC50: ADP-Glo; for PKMYT1 vs. WEE1 selectivity: fold difference in selectivity for PKMYT1 over WEE1
T2 construct: purchased Thermo Fisher PR7373A
T2 sequence (P30291 whole entry): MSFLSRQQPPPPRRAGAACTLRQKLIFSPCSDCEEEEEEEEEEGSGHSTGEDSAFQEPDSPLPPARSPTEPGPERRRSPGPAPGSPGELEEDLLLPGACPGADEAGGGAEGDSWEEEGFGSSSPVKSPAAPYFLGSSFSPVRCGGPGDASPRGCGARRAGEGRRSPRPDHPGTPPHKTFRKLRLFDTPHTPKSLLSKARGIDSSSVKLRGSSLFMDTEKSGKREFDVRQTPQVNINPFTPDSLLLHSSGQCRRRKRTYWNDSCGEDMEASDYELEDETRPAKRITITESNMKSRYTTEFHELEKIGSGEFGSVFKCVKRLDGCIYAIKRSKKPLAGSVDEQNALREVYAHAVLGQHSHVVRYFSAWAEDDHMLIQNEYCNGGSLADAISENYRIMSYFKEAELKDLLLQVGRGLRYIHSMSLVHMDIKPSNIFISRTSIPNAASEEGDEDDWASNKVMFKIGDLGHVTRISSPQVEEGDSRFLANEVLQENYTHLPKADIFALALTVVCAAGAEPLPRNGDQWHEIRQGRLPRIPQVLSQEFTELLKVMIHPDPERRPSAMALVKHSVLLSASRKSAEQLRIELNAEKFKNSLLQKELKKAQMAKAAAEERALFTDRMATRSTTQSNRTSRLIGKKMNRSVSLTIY
Procedure, shortened: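 Inhibition is measured as reduced ADP production, detected by luminescence with ADP-Glo, after enzyme (15 nM) and 30 µM ATP react for 60 min at 26° C in 1% DMSO-containing HEPES buffer, pH 7.5. Data are accepted only if replicate IC50s fall within 3-fold and r2 exceeds 0.9.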

Human PKMYT1 = target: T3, Human PKMYT1 (Homo sapiens, UniProt Q99640); experiment: PKMYT1 biochemical ADP-Glo enzymatic assay; conditions: ADP-Glo
T3 construct: Human PKMYT1 75-362 was cloned as a TEV cleavable 6xHis fusion; 6xHis (TEV cleavable) (cleaved yes); made in house; host or cells: bacterial cells
T3 sequence (Q99640 75-362): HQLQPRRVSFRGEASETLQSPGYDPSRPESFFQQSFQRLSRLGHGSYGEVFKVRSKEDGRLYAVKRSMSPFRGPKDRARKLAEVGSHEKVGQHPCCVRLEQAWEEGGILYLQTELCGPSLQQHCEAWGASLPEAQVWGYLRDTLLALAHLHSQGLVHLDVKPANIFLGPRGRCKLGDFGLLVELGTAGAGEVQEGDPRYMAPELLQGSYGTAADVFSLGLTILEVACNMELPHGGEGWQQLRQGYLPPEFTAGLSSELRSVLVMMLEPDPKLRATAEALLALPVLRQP
Procedure, shortened: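 IC50 derived from luminescence (ADP-Glo Max) after PKMYT1 kinase domain, 15 nM, turned over 500 µM ATP for 60 min at 26 °C. Buffer contained 10 mM MgCl2, 1 mM EGTA and 0.01% Brij-35 at pH 7.5.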

[2] = 15 nM WEE1, 60 minutes at 26° C., banded
[3] = banded, ">N" = at least in this band but could be higher
[4] = 15 nM PKMYT1 kinase domain, 500 µM ATP, 60 minutes at 26° C., banded
[5] = PKMYT1 kinase domain 15 nM, banded values

Structure (SMILES)	IC50 [1] [µM]	IC50 (WEE1; [2]) [µM]	PKMYT1 vs. WEE1 selectivity (WEE1; [3])	IC50 (Human PKMYT1; [4]) [µM]	IC50 (Human PKMYT1; [5]) [µM]	IC50 (WEE1; WEE1 15 nM, banded values) [µM]	PKMYT1 vs. WEE1 selectivity (WEE1; banded)	GI50 (KYSE-30 cells) [µM]	Selectivity ratio KYSE30 Gl50 vs. OVCAR3 Gl50 (OVCAR 3 cells)
Cc1ccc(O)c(C)c1NC(=O)c1cnc(Nc2nn(C)c3ccccc23)s1 [BAA-126, N-(3-hydroxy-2,6-dimethyl-phenyl)-2-[(1-methylindazol-3-yl)amino]thiazole-5-carboxamide]	< 0.1	1 to 11	X (100-<1000 fold)	< 0.05				> 5	Y (>20 fold)
Cc1cn(S(=O)(=O)C(C)C)nc1Nc1ncc(C(=O)Nc2c(C)ccc(O)c2C)s1 [BAA-268, N-(3-hydroxy-2,6-dimethylphenyl)-2-((1-(isopropylsulfonyl)-4-methyl-1H-pyrazol-3-yl)amino) thiazole-5-carboxamide]	< 0.1	> 11	Y (1000-5000 fold)	< 0.05				> 5	Y (>20 fold)
Cc1cn(C2COC2)nc1Nc1ncc(C(=O)Nc2c(C)ccc(O)c2C)s1 [BAA-269, N-(3-hydroxy-2,6-dimethylphenyl)-2-((4-methyl-1-(oxetan-3-yl)-1H-pyrazol-3-yl)amino) thiazole-5-carboxamide]	< 0.1	0.05 to 1	W (10-<100 fold)	< 0.05				0.5 to 5	Y (>20 fold)
Cc1ccc(O)c(C)c1NC(=O)c1cnc(Nc2nccc3ccc(F)cc23)s1 [BAA-303, 2-((7-fluoroisoquinolin-1-yl)amino)-N-(3-hydroxy-2,6-dimethylphenyl)thiazole-5-carboxamide]	< 0.1	> 11	Y (1000-5000 fold)	< 0.05				0.5 to 5	X (3-20 fold)
Cc1ccc(O)c(C)c1NC(=O)c1cnc(Nc2ccc(N3CCC(F)(F)CC3)cn2)s1 [BAA-308, 2-((5-(4,4-difluoropiperidin-1-yl)pyridin-2-yl)amino)-N-(3-hydroxy-2,6-dimethylphenyl)thiazole-5-carboxamide]	< 0.1	> 11	X (100-<1000 fold)	0.05 to 1				0.5 to 5	X (3-20 fold)
Cc1ccc(NC(=O)c2ccc(F)cc2)nc1Nc1ncc(C(=O)Nc2c(C)ccc(O)c2C)s1 [BAA-309, 2-((6-(4-fluorobenzamido)-3-methylpyridin-2-yl)amino)-N-(3-hydroxy-2,6-dimethylphenyl)thiazole-5-carboxamide]	< 0.1	> 11	Y (1000-5000 fold)	0.05 to 1				0.5 to 5	Y (>20 fold)
Cc1ccc(O)c(C)c1NC(=O)c1cnc(Nc2cccc(CC(=O)N(C)C3CC3)n2)s1 [BAA-428, 2-((6-(2-(Cyclopropyl(methyl)amino)-2-oxoethyl)pyridin-2-yl)amino)-N-(3-hydroxy-2,6-dimethylphenyl)thiazole-5-carboxamide]	< 0.1				< 0.05			> 5	Y (>20 fold)
Cc1ccc(O)c(C)c1NC(=O)c1cnc(Nc2ccn(C3CCN(C)C3=O)n2)s1 (stereo not drawn) [BAA-601, N-(3-hydroxy-2,6-dimethylphenyl)-2-((1-(1-methyl-2-oxopyrrolidin-3-yl)-1H-pyrazol-3-yl)amino)thiazole-5-carboxamide]	0.1 to 1				< 0.05	> 11	X (100-<1000 fold)		

More lines, main results first:

IC50 [1] [µM]	IC50 (WEE1; [2]) [µM]	PKMYT1 vs. WEE1 selectivity (WEE1; [3])	IC50 (Human PKMYT1; [4]) [µM]	IC50 (Human PKMYT1; [5]) [µM]	IC50 (WEE1; WEE1 15 nM, banded values) [µM]	PKMYT1 vs. WEE1 selectivity (WEE1; banded)	Structure (SMILES)	GI50 (KYSE-30 cells) [µM]	Selectivity ratio KYSE30 Gl50 vs. OVCAR3 Gl50 (OVCAR 3 cells)
0.1 to 1	0.05 to 1	W (10-<100 fold)	< 0.05				Cc1nc(Nc2ncc(C(=O)Nc3c(C)ccc(O)c3C)s2)cc(N2CCN(CCO)CC2)n1 [BAA-220, N-(3-hydroxy-2,6-dimethyl-phenyl)-2-[[6-[4-(2-hydroxyethyl)piperazin-1-yl]-2-methyl-pyrimidin-4-yl]amino]thiazole-5-carboxamide]	> 5	Y (>20 fold)
< 0.1	1 to 11	X (100-<1000 fold)	< 0.05				Cc1ccc(O)c(C)c1NC(=O)c1cnc(Nc2c3cccnc3nn2C)s1 [BAA-243, N-(3-hydroxy-2,6-dimethylphenyl)-2-((2-methyl-2H-pyrazolo[3,4-b]pyridin-3-yl)amino)thiazole-5-carboxamide]	> 5	X (3-20 fold)
< 0.1	1 to 11	X (100-<1000 fold)	< 0.05				Cc1cn(C2CCC2)nc1Nc1ncc(C(=O)Nc2c(C)ccc(O)c2C)s1 [BAA-270, 2-((1-cyclobutyl-4-methyl-1H-pyrazol-3-yl)amino)-N-(3-hydroxy-2,6-dimethylphenyl)thiazole-5-carboxamide]	< 0.5	Y (>20 fold)
< 0.1	> 11	X (100-<1000 fold)	< 0.05				Cc1cn(CC(F)(F)F)nc1Nc1ncc(C(=O)Nc2c(C)ccc(O)c2C)s1 [BAA-271, N-(3-hydroxy-2,6-dimethylphenyl)-2-((4-methyl-1-(2,2,2-trifluoroethyl)-1H-pyrazol-3-yl)amino) thiazole-5-carboxamide]	> 5	Y (>20 fold)
< 0.1	> 11	X (100-<1000 fold)	0.05 to 1				Cc1cc(Nc2ncc(C(=O)Nc3c(C)ccc(O)c3C)s2)nc(N2CCC(F)(F)CC2)n1 [BAA-313, 2-((2-(4,4-difluoropiperidin-1-yl)-6-methylpyrimidin-4-yl)amino)-N-(3-hydroxy-2,6-dimethylphenyl)thiazole-5-carboxamide]	0.5 to 5	Y (>20 fold)
< 0.1	1 to 11	W (10-<100 fold)	0.05 to 1				Cc1ccc(O)c(C)c1NC(=O)c1cnc(Nc2cccc(N3CCC(F)(F)CC3)n2)s1 [BAA-314, 2-((6-(4,4-difluoropiperidin-1-yl)pyridin-2-yl)amino)-N-(3-hydroxy-2,6-dimethylphenyl)thiazole-5-carboxamide]	0.5 to 5	Y (>20 fold)
0.1 to 1				< 0.05	> 11	Y (1000-5000 fold)	Cc1ccc(O)c(C)c1NC(=O)c1cnc(Nc2nccc3cccnc23)s1 [BAA-604, 2-((1,7-naphthyridin-8-yl)amino)-N-(3-hydroxy-2,6-dimethylphenyl)thiazole-5-carboxamide]		
